Measurements taken from patent US9040519B2, “Fused tetracyclic pyrido [4,3-B] indole and pyrido [3,4-B] indole derivatives and methods of use” (Medivation Technologies, Inc., priority 2010, dated 2015).

Columns and labels:
[1] = target: T1, human recombinant adrenergic α2C receptor (Homo sapiens, UniProt P18825); test: Adrenergic α2C radioligand binding ([3H]MK-912); conditions: compound at 0.1 μM; insect Sf9 cells; read-out: Percentage inhibition of ligand binding, Adrenergic α2C
T1 construct: expressed in transfected cells; host or cells: insect Sf9 cells
T1 sequence (P18825 1-462): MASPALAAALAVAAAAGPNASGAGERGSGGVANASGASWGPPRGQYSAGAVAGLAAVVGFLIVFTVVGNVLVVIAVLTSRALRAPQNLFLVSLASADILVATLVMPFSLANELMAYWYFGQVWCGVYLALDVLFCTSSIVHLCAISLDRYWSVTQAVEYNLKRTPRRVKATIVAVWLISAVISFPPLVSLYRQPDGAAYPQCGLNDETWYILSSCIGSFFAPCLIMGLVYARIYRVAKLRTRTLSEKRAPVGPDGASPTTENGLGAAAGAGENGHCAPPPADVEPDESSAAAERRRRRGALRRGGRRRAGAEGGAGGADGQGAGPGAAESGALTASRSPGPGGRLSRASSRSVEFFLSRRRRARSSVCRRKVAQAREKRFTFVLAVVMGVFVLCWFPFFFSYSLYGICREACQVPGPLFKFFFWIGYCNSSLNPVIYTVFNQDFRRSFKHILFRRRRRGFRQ
Method: To evaluate in radioligand binding assays the activity of compounds of the invention, human recombinant adrenergic α2C receptor expressed in insect Sf9 cells (Uhlen, S. et al, J. Pharmacol. Exp. Ther. 271:1558, 1994) in a modified Tris-HCl buffer (50 mM Tris-HCl, pH 7.4, 12.5 mM MgCl2, 2 mM EDTA) was used. Compounds of the invention were incubated with 1 nM [^3H]MK-912 for 60 min at 25° C. Non-specific binding was estimated in the presence of 10 μM WB-4101. Receptor proteins were filtered and washed, the filters were then counted to determine [^3H]MK-912 specifically bound. Compounds were screened at 1 μM or lower, using 1% DMSO as vehicle. Biochemical assay results are presented as the percent inhibition of specific binding in Table 3.

[2] = target: T2, rat adrenergic α1A receptor (Rattus norvegicus, UniProt P43140); test: Adrenergic α1A radioligand binding ([3H]Prazosin); conditions: compound at 0.1 μM; Wistar Rat submaxillary glands; read-out: Percentage inhibition of ligand binding, Adrenergic α1A
T2 construct: rat adrenergic α1A receptor obtained from Wistar Rat submaxillary glands; from tissue; host or cells: Wistar rat submaxillary glands
T2 sequence (P43140 1-466): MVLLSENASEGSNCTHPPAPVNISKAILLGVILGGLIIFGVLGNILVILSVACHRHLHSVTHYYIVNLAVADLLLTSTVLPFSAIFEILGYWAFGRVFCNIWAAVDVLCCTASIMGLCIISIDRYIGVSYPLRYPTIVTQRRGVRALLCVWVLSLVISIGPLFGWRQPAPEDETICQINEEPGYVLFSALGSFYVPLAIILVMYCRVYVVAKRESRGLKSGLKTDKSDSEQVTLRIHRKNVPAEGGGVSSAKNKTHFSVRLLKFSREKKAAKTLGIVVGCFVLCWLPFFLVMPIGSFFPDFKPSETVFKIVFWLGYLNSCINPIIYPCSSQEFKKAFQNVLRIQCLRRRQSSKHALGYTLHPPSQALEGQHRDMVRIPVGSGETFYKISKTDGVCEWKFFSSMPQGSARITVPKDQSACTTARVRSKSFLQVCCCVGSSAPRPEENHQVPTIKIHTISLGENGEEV
Method: To evaluate in radioligand binding assays the activity of compounds of the invention, rat adrenergic α1A receptor obtained from Wistar Rat submaxillary glands (Michel, A. et al, Br. J. Pharmacol. 98:883, 1989) in a modified Tris-HCl buffer (50 mM Tris-HCl buffer, pH 7.4, 0.5 mM EDTA) was used. Compounds of the invention were incubated with 0.25 nM [^3H]Prazosin for 60 min at 25° C. Non-specific binding was estimated in the presence of 10 μM phentolamine. Receptor proteins were filtered and washed, the filters were then counted to determine [^3H]Prazosin specifically bound. Compounds of the invention were screened at 1 μM or lower, using 1% DMSO as vehicle. Biochemical assay results are presented as the percent inhibition of specific binding in Table 3.

[3] = target: T3, human recombinant serotonin (5-Hydroxytryptamine) 5-HT6 receptor (Homo sapiens, UniProt P50406); test: Serotonin 5-HT6 radioligand binding ([3H]LSD); conditions: compound at 0.1 μM; HeLa cells; read-out: Percentage inhibition of ligand binding, Serotonin 5-HT6
T3 construct: expressed in transfected cells; host or cells: HeLa
T3 sequence (P50406 whole entry): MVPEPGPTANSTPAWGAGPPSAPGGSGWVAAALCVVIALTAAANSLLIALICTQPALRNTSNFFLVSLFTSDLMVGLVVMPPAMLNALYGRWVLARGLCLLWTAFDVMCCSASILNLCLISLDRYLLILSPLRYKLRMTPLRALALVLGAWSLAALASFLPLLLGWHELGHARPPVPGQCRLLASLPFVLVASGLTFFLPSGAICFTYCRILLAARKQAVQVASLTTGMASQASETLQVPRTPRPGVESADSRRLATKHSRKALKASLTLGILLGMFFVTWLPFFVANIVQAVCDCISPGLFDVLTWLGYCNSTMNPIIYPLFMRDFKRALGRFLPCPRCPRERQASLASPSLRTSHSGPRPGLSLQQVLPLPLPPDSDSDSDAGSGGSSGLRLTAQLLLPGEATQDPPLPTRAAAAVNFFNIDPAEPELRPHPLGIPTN
Method: To evaluate in radioligand binding assays the activity of compounds of the invention, human recombinant serotonin (5-Hydroxytryptamine) 5-HT6 receptor expressed in human HeLa cells (Monsma, F. Jr. et al, Mol. Pharmacol. 43:320, 1993) in a modified Tris-HCl buffer (50 mM Tris-HCl, pH 7.4, 150 mM NaCl, 2 mM Ascorbic Acid, 0.001% BSA) was used. Compounds of the invention were incubated with 1.5 nM [3H]Lysergic acid diethylamide (LSD) for 120 min at 37° C. Non-specific binding was estimated in the presence of 5 μM Serotonin (5-HT). Receptor proteins were filtered and washed, the filters were then counted to determine [3H]LSD specifically bound. Compounds were screened at 1 μM or lower, using 1% DMSO as vehicle. Biochemical assay results are presented as the percent inhibition of specific binding in Table 4.

Row | Compound | inhibition at 0.1 µM [1] [%] | inhibition at 0.1 µM [2] [%] | inhibition at 0.1 µM [3] [%]
1 | Cc1ccc2c(c1)c1c3n2CC(c2ccncc2)=CCC3(C)CN(C)C1 (stereo not drawn) [Compound 11, 2,3a,10-trimethyl-6-pyridin-4-yl-1,2,3,3a,4,7-hexahydro-2,7a-diaza-cyclohepta[jk]fluorene] | 1 | 25 | 5
2 | Cc1ccc2c(c1)c1c3n2C(c2ccccc2)CCC3(C)CN(C)C1 (stereo not drawn) [Compound 12, 2,3a,10-trimethyl-6-phenyl-2,3,3a,4,5,6-hexahydro-1H-indolo[3,2,1-ij][1,6]naphthyridine] | -3 | 12 | 21
3 | Cc1ccc2c(c1)c1c3n2C(c2ccccc2)=CCC3(C)CN(C)C1 (stereo not drawn) [Compound 10, 2,3a,10-trimethyl-6-phenyl-2,3,3a,4-tetrahydro-1H-indolo[3,2,1-ij][1,6]naphthyridine] | 2 | -4 | 7
